# Positions of bridges follow the written chain, without caps; N, C: chain ends. Non-standard residues stand in square brackets, D forms with d. Residues, ends and D or L forms follow the SMILES beside them. *: point of attachment. Me3N+(CH2)2O(CH2)2O(CH2)2CO = C[N+](C)(C)CCOCCOCCC(=O)*; CH2CH2OCH2CH2OCH2CH2NMe3+ = C[N+](C)(C)CCOCCOCC*; Trp(7-Me) = Cc1cccc2c(C[C@H](N)C(=O)O)c[nH]c12; Dab(NMeAc) = CC(=O)N(C)CC[C@H](N)C(=O)O; CH2CH2OCH2CH2NMe3+ = C[N+](C)(C)CCOCC*; 2Nal = N[C@@H](Cc1ccc2ccccc2c1)C(=O)O; AEF = NCCOc1ccc(C[C@H](N)C(=O)O)cc1; 3Pal = N[C@@H](Cc1cccnc1)C(=O)O; Lys(Me) = CNCCCC[C@H](N)C(=O)O; Pen = CC(C)(S)[C@H](N)C(=O)O; X37 = C[N+]1(C)CCN(CC*)CC1; X57 = C[N+]1(C)CCC(CC*)CC1; X18 = C[N+]1(C)CCOC(C*)C1; Thp = NC1(C(=O)O)CCOCC1; X17 = C[N+]1(CC*)CCOCC1; Sar = CNCC(=O)O
# Tests used:
# [1] = molecular target: T1, IL-23R (Homo sapiens, UniProt Q5VWK5); assay: IL23R Reporter Assay; format: cell-based; conditions: HEK293 cells containing IL-23R, IL-12RP1 and STAT-inducible firefly luciferase reporter; 10 ng/mL IL-23 (EC90); 5 h at 37° C.; read-out: IL23R Reporter Assay
# T1 construct: host or cells: HEK293
# T1 sequence (Q5VWK5 24-629): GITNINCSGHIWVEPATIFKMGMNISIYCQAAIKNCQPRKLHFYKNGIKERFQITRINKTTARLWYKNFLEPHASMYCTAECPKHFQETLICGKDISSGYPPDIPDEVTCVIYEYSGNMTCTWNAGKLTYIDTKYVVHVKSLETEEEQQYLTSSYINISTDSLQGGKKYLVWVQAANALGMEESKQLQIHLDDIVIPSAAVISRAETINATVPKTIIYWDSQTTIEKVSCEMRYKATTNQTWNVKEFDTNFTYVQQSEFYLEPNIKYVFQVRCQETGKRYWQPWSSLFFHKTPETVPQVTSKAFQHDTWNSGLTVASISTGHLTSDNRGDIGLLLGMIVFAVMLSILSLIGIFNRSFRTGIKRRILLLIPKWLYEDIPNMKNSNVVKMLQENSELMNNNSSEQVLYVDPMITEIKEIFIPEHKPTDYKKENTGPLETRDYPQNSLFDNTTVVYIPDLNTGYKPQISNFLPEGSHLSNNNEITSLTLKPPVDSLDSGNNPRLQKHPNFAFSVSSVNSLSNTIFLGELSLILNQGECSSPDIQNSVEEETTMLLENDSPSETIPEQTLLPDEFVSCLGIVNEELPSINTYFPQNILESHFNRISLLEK
# [2] = Exposed Polar Surface Area (EPSA); format: physicochemical; conditions: SFC on Chirex 3014 column; sample 1 mM DMSO stock; read-out: EPSA
# Procedure, shortened: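 Compounds, as 1 mM DMSO stock, were injected in duplicate onto an SFC Chirex 3014 column at 35 °C and eluted with a CO2/methanol (20 mM ammonium formate) gradient. EPSA values in Å^2 were derived from retention times using a linear fit to eight calibration standards, reinjected every 20 compounds.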
SMILES,IC50 [1],EPSA [2]
"CC(=O)N(C)CC[C@H](NC(=O)C1(NC(=O)[C@H](Cc2ccc3ccccc3c2)NC(=O)[C@H](Cc2ccc(OCCN)cc2)NC(=O)[C@H]2NC(=O)[C@H](CCC(=O)N(C)C)NC(=O)[C@H](Cc3c[nH]c4c(C)cccc34)NC(=O)[C@H]([C@@H](C)O)NC(=O)[C@H](CC(N)=O)NC(=O)[C@@H](NC(=O)CCOCCOCC[N+](C)(C)C)C(C)(C)SSC2(C)C)CCOCC1)C(=O)N[C@@H](CC(N)=O)C(=O)N[C@@H](Cc1cccnc1)C(=O)N(C)CC(N)=O [compound 178, cPEG3aCO-Pen(3)-N-T-7MeW-Q(N(Me)2)-Pen(3)-AEF-2Nal-THP-Dab(NMeAc)-N-3Pya-Sar-CONH2] ({Me3N+(CH2)2O(CH2)2O(CH2)2CO}-[Pen]NT[Trp(7-Me)]E(NMe2)[Pen][AEF][2Nal][Thp][Dab(NMeAc)]N[3Pal][Sar]-NH2; disulfide 1-6)",2 nM,154 A^2
"CC(=O)N[C@@H]1C(=O)N[C@@H](CC(=O)N(C)C)C(=O)N[C@@H]([C@@H](C)O)C(=O)N[C@@H](Cc2c[nH]c3c(C)cccc23)C(=O)N[C@@H](CCCCN(C)C(C)=O)C(=O)N[C@H](C(=O)N[C@@H](Cc2ccc(OCCOCCOCC[N+](C)(C)C)cc2)C(=O)N[C@@H](Cc2ccc3ccccc3c2)C(=O)NC2(C(=O)N[C@@H](CCCCN(C)C(C)=O)C(=O)N[C@@H](CC(N)=O)C(=O)N[C@@H](Cc3cccnc3)C(=O)N(C)CC(=O)N(C)C)CCOCC2)C(C)(C)SSC1(C)C [compound 183, MeCO-Pen(3)-N(N(Me)2)-T-7MeW-K(NMeAc)-Pen(3)-APEG3F-2Nal-THP-K(NMeAc)-N-3Pya-Sar-CON(Me)2] (Ac-[Pen]D(NMe2)T[Trp(7-Me)][Lys(Me)](Ac)[Pen]Y(CH2CH2OCH2CH2OCH2CH2NMe3+)[2Nal][Thp][Lys(Me)](Ac)N[3Pal][Sar]-NMe2; disulfide 1-6)",1.8 nM,133 A^2
"CC(=O)N(C)CCCC[C@@H]1NC(=O)[C@H](Cc2c[nH]c3c(C)cccc23)NC(=O)[C@H]([C@@H](C)O)NC(=O)[C@H](CC(=O)N(C)C)NC(=O)[C@@H](NC(=O)CCOCCOCC[N+](C)(C)C)C(C)(C)SSC(C)(C)[C@@H](C(=O)N[C@@H](Cc2ccc(OCCOCCOCC[N+](C)(C)C)cc2)C(=O)N[C@@H](Cc2ccc3ccccc3c2)C(=O)NC2(C(=O)N[C@@H](CCC(=O)O)C(=O)N[C@@H](CC(N)=O)C(=O)N[C@@H](Cc3cccnc3)C(=O)N(C)CC(=O)N(C)C)CCOCC2)NC1=O [compound 184, cPEG3aCO-Pen(3)-N(N(Me)2)-T-7MeW-K(NMeAc)-Pen(3)-APEG3F-2Nal-THP-E-N-3Pya-Sar-CON(Me)2] ({Me3N+(CH2)2O(CH2)2O(CH2)2CO}-[Pen]D(NMe2)T[Trp(7-Me)][Lys(Me)](Ac)[Pen]Y(CH2CH2OCH2CH2OCH2CH2NMe3+)[2Nal][Thp]EN[3Pal][Sar]-NMe2; disulfide 1-6)",3.4 nM,142 A^2
"CC(=O)N(C)CCCC[C@@H]1NC(=O)[C@H](Cc2c[nH]c3c(C)cccc23)NC(=O)[C@H]([C@@H](C)O)NC(=O)[C@H](CC(=O)N(C)C)NC(=O)[C@@H](NC(=O)CCOCCOCC[N+](C)(C)C)C(C)(C)SSC(C)(C)[C@@H](C(=O)N[C@@H](Cc2ccc(OCCN3CC[N+](C)(C)CC3)cc2)C(=O)N[C@@H](Cc2ccc3ccccc3c2)C(=O)NC2(C(=O)N[C@@H](CCCCN(C)C(C)=O)C(=O)N[C@@H](CC(N)=O)C(=O)N[C@@H](Cc3cccnc3)C(=O)N(C)CC(=O)N(C)C)CCOCC2)NC1=O [compound 193, cPEG3aCO-Pen(3)-N(N(Me)2)-T-7MeW-K(NMeAc)-Pen(3)-4DMPzEF-2Nal-THP-K(NMeAc)-N-3Pya-Sar-CON(Me)2] ({Me3N+(CH2)2O(CH2)2O(CH2)2CO}-[Pen]D(NMe2)T[Trp(7-Me)][Lys(Me)](Ac)[Pen]Y(X37)[2Nal][Thp][Lys(Me)](Ac)N[3Pal][Sar]-NMe2; disulfide 1-6)",40 nM,135 A^2
"CC(=O)N(C)CCCC[C@@H]1NC(=O)[C@H](Cc2c[nH]c3c(C)cccc23)NC(=O)[C@H]([C@@H](C)O)NC(=O)[C@H](CC(=O)N(C)C)NC(=O)[C@@H](NC(=O)CCOCCOCC[N+](C)(C)C)C(C)(C)SSC(C)(C)[C@@H](C(=O)N[C@@H](Cc2ccc(OCC[N+]3(C)CCOCC3)cc2)C(=O)N[C@@H](Cc2ccc3ccccc3c2)C(=O)NC2(C(=O)N[C@@H](CCCCN(C)C(C)=O)C(=O)N[C@@H](CC(N)=O)C(=O)N[C@@H](Cc3cccnc3)C(=O)N(C)CC(=O)N(C)C)CCOCC2)NC1=O [compound 198, cPEG3aCO-Pen(3)-N(N(Me)2)-T-7MeW-K(NMeac)-Pen(3)-MMoEF-2Nal-THP-K(NMeAc)-N-3Pya-Sar-CON(Me)2] ({Me3N+(CH2)2O(CH2)2O(CH2)2CO}-[Pen]D(NMe2)T[Trp(7-Me)][Lys(Me)](Ac)[Pen]Y(X17)[2Nal][Thp][Lys(Me)](Ac)N[3Pal][Sar]-NMe2; disulfide 1-6)",3.1 nM,144 A^2

# More lines, in order of falling IC50 [1], values ahead:
IC50 [1],EPSA [2],SMILES
86 nM,137 A^2,"CC(=O)N(C)CCCC[C@@H]1NC(=O)[C@H](Cc2c[nH]c3c(C)cccc23)NC(=O)[C@H]([C@@H](C)O)NC(=O)[C@H](CC(=O)N(C)C)NC(=O)[C@@H](NC(=O)CCOCCOCC[N+](C)(C)C)C(C)(C)SSC(C)(C)[C@@H](C(=O)N[C@@H](Cc2ccc(OCCC3CC[N+](C)(C)CC3)cc2)C(=O)N[C@@H](Cc2ccc3ccccc3c2)C(=O)NC2(C(=O)N[C@@H](CCCCN(C)C(C)=O)C(=O)N[C@@H](CC(N)=O)C(=O)N[C@@H](Cc3cccnc3)C(=O)N(C)CC(=O)N(C)C)CCOCC2)NC1=O [compound 187, cPEG3aCO-Pen(3)-N(N(Me)2)-T-7MeW-K(NMeAc)-Pen(3)-4DMPEF-2Nal-THP-K(NMeAc)-N-3Pya-Sar-CON(Me)2] ({Me3N+(CH2)2O(CH2)2O(CH2)2CO}-[Pen]D(NMe2)T[Trp(7-Me)][Lys(Me)](Ac)[Pen]Y(X57)[2Nal][Thp][Lys(Me)](Ac)N[3Pal][Sar]-NMe2; disulfide 1-6)"
3.5 nM,146 A^2,"CC(=O)N(C)CCCC[C@@H]1NC(=O)[C@H](Cc2c[nH]c3c(C)cccc23)NC(=O)[C@H]([C@@H](C)O)NC(=O)[C@H](CC(=O)N(C)C)NC(=O)[C@@H](NC(=O)CCOCCOCC[N+](C)(C)C)C(C)(C)SSC(C)(C)[C@@H](C(=O)N[C@@H](Cc2ccc(OCC3C[N+](C)(C)CCO3)cc2)C(=O)N[C@@H](Cc2ccc3ccccc3c2)C(=O)NC2(C(=O)N[C@@H](CCCCN(C)C(C)=O)C(=O)N[C@@H](CC(N)=O)C(=O)N[C@@H](Cc3cccnc3)C(=O)N(C)CC(=O)N(C)C)CCOCC2)NC1=O (stereo partly drawn) [compound 202, cPEG3aCO-Pen(3)-N(N(Me)2)-T-7MeW-K(NMeAc)-Pen(3)-DMPMF-2Nal-THP-K(NMeAc)-N-3Pya-Sar-CON(Me)2] ({Me3N+(CH2)2O(CH2)2O(CH2)2CO}-[Pen]D(NMe2)T[Trp(7-Me)][Lys(Me)](Ac)[Pen]Y(X18)[2Nal][Thp][Lys(Me)](Ac)N[3Pal][Sar]-NMe2; disulfide 1-6)"
3 nM,141 A^2,"CC(=O)N(C)CCCC[C@@H]1NC(=O)[C@H](Cc2c[nH]c3c(C)cccc23)NC(=O)[C@H]([C@@H](C)O)NC(=O)[C@H](CC(=O)N(C)C)NC(=O)[C@@H](NC(=O)CCOCCOCC[N+](C)(C)C)C(C)(C)SSC(C)(C)[C@@H](C(=O)N[C@@H](Cc2ccc(OCCOCC[N+](C)(C)C)cc2)C(=O)N[C@@H](Cc2ccc3ccccc3c2)C(=O)NC2(C(=O)N[C@@H](CCCCN(C)C(C)=O)C(=O)N[C@@H](CC(N)=O)C(=O)N[C@@H](Cc3cccnc3)C(=O)N(C)CC(=O)N(C)C)CCOCC2)NC1=O [compound 199, cPEG3aCO-Pen(3)-N(N(Me)2)-T-7MeW-K(NMeAc)-Pen(3)-APEG2F-2Nal-THP-K(NMeAc)-N-3Pya-Sar-CON(Me)2] ({Me3N+(CH2)2O(CH2)2O(CH2)2CO}-[Pen]D(NMe2)T[Trp(7-Me)][Lys(Me)](Ac)[Pen]Y(CH2CH2OCH2CH2NMe3+)[2Nal][Thp][Lys(Me)](Ac)N[3Pal][Sar]-NMe2; disulfide 1-6)"
2 nM,149 A^2,"CC(=O)N(C)CCCC[C@@H]1NC(=O)[C@H](Cc2c[nH]c3c(C)cccc23)NC(=O)[C@H]([C@@H](C)O)NC(=O)[C@H](CC(=O)N(C)C)NC(=O)[C@@H](NC(=O)CCOCCOCC[N+](C)(C)C)C(C)(C)SSC(C)(C)[C@@H](C(=O)N[C@@H](Cc2ccc(OCCN)cc2)C(=O)N[C@@H](Cc2ccc3ccccc3c2)C(=O)NC2(C(=O)N[C@@H](CCN(C)C(C)=O)C(=O)N[C@@H](CC(N)=O)C(=O)N[C@@H](Cc3cccnc3)C(=O)N(C)CC(=O)N(C)C)CCOCC2)NC1=O [compound 177, cPEG3aCO-Pen(3)-N(N(Me)2)-T-7MeW-K(NMeAc)-Pen(3)-AEF-2Nal-THP-Dab(NMeAc)-N-3Pya-Sar-CON(Me)2] ({Me3N+(CH2)2O(CH2)2O(CH2)2CO}-[Pen]D(NMe2)T[Trp(7-Me)][Lys(Me)](Ac)[Pen][AEF][2Nal][Thp][Dab(NMeAc)]N[3Pal][Sar]-NMe2; disulfide 1-6)"
